Calls of active or inactive are those of the source. The calls are words filed in the database; no cut-off is given here.
Key:
MDA-MB-231 [1] = experiment: Inhibition of cell invasion in human MDA-MB-231 cells assessed as reduction in number of invasive cells incubated for 48 hrs by crystal violet staining based inverted microscopic analysis; assay type: functional; details: dose 1-4 µM
MDA-MB-231 [2] = experiment: Induction of apoptosis in human MDA-MB-231 cells assessed as live cells at 2 uM incubated for 72 hrs by Annexin V-FITC/PI staining based flow cytometry analysis (reference value: 97.51%); assay type: functional
MDA-MB-231 [3] = experiment: Induction of apoptosis in human MDA-MB-231 cells assessed as dead cells at 1 uM incubated for 72 hrs by Annexin V-FITC/PI staining based flow cytometry analysis (reference value: 0.23%); assay type: functional
Focal adhesion kinase 1 [4] = target: T1, Focal adhesion kinase 1 (Homo sapiens, UniProt Q05397); experiment: Inhibition of FAK-mediated signaling pathway in human MDA-MB-231 cells assessed as reduction in MMP-2 protein level incubated for 72 hrs by Western blot analysis; assay type: cell-based; details: dose 1-4 µM
Target sequence in this assay (Q05397 2-1052 limits assumed): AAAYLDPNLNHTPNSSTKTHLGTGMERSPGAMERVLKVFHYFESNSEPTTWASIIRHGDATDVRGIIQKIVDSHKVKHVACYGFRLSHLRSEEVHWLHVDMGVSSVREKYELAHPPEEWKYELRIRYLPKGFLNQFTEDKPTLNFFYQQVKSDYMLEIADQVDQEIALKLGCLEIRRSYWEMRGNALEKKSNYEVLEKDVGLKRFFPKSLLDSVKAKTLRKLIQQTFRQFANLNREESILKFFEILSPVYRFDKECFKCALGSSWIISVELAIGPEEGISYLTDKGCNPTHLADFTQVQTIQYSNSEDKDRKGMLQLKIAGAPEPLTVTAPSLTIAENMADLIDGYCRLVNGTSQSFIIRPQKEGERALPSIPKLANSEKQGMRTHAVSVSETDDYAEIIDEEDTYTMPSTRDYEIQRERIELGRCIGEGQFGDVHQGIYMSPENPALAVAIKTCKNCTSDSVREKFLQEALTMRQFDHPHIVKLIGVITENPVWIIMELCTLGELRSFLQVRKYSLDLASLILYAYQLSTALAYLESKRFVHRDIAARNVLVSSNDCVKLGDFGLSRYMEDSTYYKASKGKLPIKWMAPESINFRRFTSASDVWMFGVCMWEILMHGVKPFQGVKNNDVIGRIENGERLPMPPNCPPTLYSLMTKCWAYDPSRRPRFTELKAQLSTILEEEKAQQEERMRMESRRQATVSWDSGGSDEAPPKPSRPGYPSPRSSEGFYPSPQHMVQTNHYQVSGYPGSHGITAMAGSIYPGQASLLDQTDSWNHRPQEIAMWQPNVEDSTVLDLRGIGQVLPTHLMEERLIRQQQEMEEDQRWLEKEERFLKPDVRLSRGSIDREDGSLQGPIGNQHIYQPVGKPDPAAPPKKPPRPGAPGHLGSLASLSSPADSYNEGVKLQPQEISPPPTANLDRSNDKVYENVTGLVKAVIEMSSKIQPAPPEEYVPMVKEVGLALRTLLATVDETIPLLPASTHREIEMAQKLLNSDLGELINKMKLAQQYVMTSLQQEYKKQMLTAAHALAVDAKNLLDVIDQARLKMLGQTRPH

MDA-MB-231 [5] = experiment: Induction of apoptosis in human MDA-MB-231 cells assessed as early apoptotic cells at 1 uM incubated for 72 hrs by Annexin V-FITC/PI staining based flow cytometry analysis (reference value: 2.16%); assay type: functional
MDA-MB-231 [6] = experiment: Inhibition of focal adhesion formation in human MDA-MB-231 cells assessed as reduction in anti-vinculin antibodies fluorescence signal at 4 uM pretreated with carboxy-PTIO for 1 hr followed by compound addition and further incubated for 72 hrs by confocal microscopic analysis; assay type: functional, cell-based
MDA-MB-453 = experiment: Antiproliferative activity against human MDA-MB-453 cells assessed as inhibition of cell proliferation incubated for 72 hrs by MTT assay; assay type: functional, cell-based; details: MDA-MB-453, 72 h
MDA-MB-157 = experiment: Antiproliferative activity against human MDA-MB-157 cells assessed as inhibition of cell proliferation incubated for 72 hrs by MTT assay; assay type: functional, cell-based; details: MDA-MB-157, 72 h
MDA-MB-231 [7] = experiment: Antiproliferative activity against human MDA-MB-231 cells assessed as inhibition of cell proliferation at 5 uM incubated for 72 hrs by MTT assay relative to control; assay type: functional
MDA-MB-231 [8] = experiment: Induction of apoptosis in human MDA-MB-231 cells assessed as dead cells at 4 uM incubated for 72 hrs by Annexin V-FITC/PI staining based flow cytometry analysis (reference value: 0.23%); assay type: functional
[9] = Cytotoxicity against human MCF-10A cells assessed as inhibition of cell proliferation incubated for 72 hrs by MTT assay; assay type: toxicity, cell-based
MDA-MB-231 [10] = experiment: Inhibition of focal adhesion formation in human MDA-MB-231 cells assessed as reduction in total area at 4 uM incubated for 72 hrs; assay type: functional, cell-based
[11] = Selectivity index, ratio of IC50 for human MCF-10A cells to IC50 for human MDA-MB-231 cells; assay type: toxicity; details: MCF-10A cells versus MDA-MB-231 cells, read-out: Ratio IC50
MDA-MB-231 [12] = experiment: Inhibition of focal adhesion formation in human MDA-MB-231 cells assessed as reduction in anti-vinculin antibodies fluorescence signal at 4 uM incubated for 72 hrs by confocal microscopic analysis; assay type: functional, cell-based
MDA-MB-231 [13] = experiment: Inhibition of stress fibers formation in human MDA-MB-231 cells assessed as reduction in total area at 4 uM incubated for 72 hrs; assay type: functional, cell-based
Focal adhesion kinase 1 [14] = target: T1, Focal adhesion kinase 1; experiment: Inhibition of FAK-mediated signaling pathway in human MDA-MB-231 cells assessed as reduction in phosphorylated AKT protein level incubated for 72 hrs by Western blot analysis; assay type: cell-based; details: dose 1-4 µM
Target sequence in this assay (Q05397 2-1052 limits assumed): as above

MDA-MB-231 [15] = experiment: Antiproliferative activity against human MDA-MB-231 cells assessed as inhibition of cell proliferation incubated for 72 hrs by MTT assay; assay type: functional, cell-based; details: MDA-MB-231, 72 h
MDA-MB-231 [16] = experiment: Inhibition of focal adhesion formation in human MDA-MB-231 cells assessed as reduction in number of focal adhesions at 4 uM incubated for 72 hrs by quantitative analysis; assay type: functional, cell-based
MDA-MB-231 [17] = experiment: Antitumor activity against human MDA-MB-231 cells xenografted in po dosed BALB/c nude mouse assessed as reduction in number of lung tumor nodules administered once daily for 30 days; assay type: functional, organism-based; details: dose 15-30 mg/kg, time 30.0 day
MDA-MB-231 [18] = experiment: Induction of apoptosis in human MDA-MB-231 cells assessed as live cells at 1 uM incubated for 72 hrs by Annexin V-FITC/PI staining based flow cytometry analysis (reference value: 97.51%); assay type: functional
MDA-MB-231 [19] = experiment: Potency index, ratio of TAE226 IC50 to test compound IC50 for antiproliferative activity against human MDA-MB-231 cells assessed as inhibition of cell proliferation incubated for 72 hrs by MTT assay; assay type: functional
[20] = Toxicity in BALB/c nude mouse xenografted with human MDA-MB-231 cells assessed as reduction in body weight at 50 to 30 mg/kg, po administered once daily for 30 days and measured every 3 days; assay type: organism-based; details: in vivo, 720 h, dose 50-30 mg/kg, time 30 day
Focal adhesion kinase 1 [21] = target: T1, Focal adhesion kinase 1; experiment: Inhibition of FAK autophosphorylation at Y397 residue in human MDA-MB-231 cells incubated for 72 hrs by Western blot analysis; assay type: cell-based; details: dose 1-4 µM
Target sequence in this assay (Q05397 2-1052 limits assumed): as above

MDA-MB-231 [22] = experiment: Antiproliferative activity against human MDA-MB-231 cells assessed as inhibition of cell proliferation at 1 uM pretreated with carboxy-PTIO at 5 to 20 uM for 1 hr followed by compound addition and further incubated for 72 hrs by MTT assay; assay type: functional, cell-based
MDA-MB-231 [23] = experiment: Inhibition of stress fibers formation in human MDA-MB-231 cells assessed as reduction in FITC-conjugated phalloidin fluorescence signal at 4 uM pretreated with carboxy-PTIO for 1 hr followed by compound addition and further incubated for 72 hrs by confocal microscopic analysis; assay type: functional, cell-based
MDA-MB-231 [24] = experiment: Induction of apoptosis in human MDA-MB-231 cells assessed as dead cells at 2 uM incubated for 72 hrs by Annexin V-FITC/PI staining based flow cytometry analysis (reference value: 0.23%); assay type: functional
MDA-MB-231 [25] = experiment: Induction of apoptosis in human MDA-MB-231 cells assessed as late apoptotic cells at 4 uM incubated for 72 hrs by Annexin V-FITC/PI staining based flow cytometry analysis (reference value: 0.11%); assay type: functional
Focal adhesion kinase 1 [26] = target: T1, Focal adhesion kinase 1; experiment: Inhibition of FAK (unknown origin)
Target sequence in this assay (Q05397 whole entry): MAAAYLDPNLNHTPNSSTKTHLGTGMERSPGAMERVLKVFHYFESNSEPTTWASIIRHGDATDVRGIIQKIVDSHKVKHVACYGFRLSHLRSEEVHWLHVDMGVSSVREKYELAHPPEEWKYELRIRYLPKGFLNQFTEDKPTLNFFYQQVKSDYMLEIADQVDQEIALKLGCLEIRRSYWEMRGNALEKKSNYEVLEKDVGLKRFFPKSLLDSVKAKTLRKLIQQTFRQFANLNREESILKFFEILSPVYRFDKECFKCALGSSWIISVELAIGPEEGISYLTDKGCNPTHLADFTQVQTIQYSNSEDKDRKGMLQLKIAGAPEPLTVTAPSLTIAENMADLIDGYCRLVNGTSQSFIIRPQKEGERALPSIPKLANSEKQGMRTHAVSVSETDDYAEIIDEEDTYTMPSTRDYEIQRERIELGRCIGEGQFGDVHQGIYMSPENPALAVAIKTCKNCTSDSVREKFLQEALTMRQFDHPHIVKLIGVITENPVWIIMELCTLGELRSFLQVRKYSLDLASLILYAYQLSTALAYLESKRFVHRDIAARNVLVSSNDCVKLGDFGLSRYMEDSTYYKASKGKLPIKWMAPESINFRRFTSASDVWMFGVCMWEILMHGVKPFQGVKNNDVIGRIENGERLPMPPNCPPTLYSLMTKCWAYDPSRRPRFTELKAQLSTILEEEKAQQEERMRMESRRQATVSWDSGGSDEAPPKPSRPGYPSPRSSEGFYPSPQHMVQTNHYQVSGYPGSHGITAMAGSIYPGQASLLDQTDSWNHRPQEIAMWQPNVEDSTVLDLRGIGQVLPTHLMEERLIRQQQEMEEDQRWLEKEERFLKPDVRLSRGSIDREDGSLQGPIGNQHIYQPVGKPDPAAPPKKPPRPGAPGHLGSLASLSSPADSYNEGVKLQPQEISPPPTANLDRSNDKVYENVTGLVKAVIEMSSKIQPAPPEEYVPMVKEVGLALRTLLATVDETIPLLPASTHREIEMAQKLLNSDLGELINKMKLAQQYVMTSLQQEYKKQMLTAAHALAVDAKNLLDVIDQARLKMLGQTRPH

MDA-MB-231 [27] = experiment: Induction of NO production in human MDA-MB-231 cells incubated for 72 hrs by DAF-FM-DA dye based flow cytometry analysis; assay type: functional, cell-based; details: dose 1-4 µM
MDA-MB-231 [28] = experiment: Inhibition of stress fibers formation in human MDA-MB-231 cells assessed as reduction in FITC-conjugated phalloidin fluorescence signal at 4 uM incubated for 72 hrs by confocal microscopic analysis; assay type: functional, cell-based
MDA-MB-231 [29] = experiment: Induction of apoptosis in human MDA-MB-231 cells assessed as late apoptotic cells at 1 uM incubated for 72 hrs by Annexin V-FITC/PI staining based flow cytometry analysis (reference value: 0.11%); assay type: functional
Focal adhesion kinase 1 [30] = target: T1, Focal adhesion kinase 1; experiment: Inhibition of FAK-mediated signaling pathway in human MDA-MB-231 cells assessed as reduction in phosphorylated AKT protein level at 4 uM pretreated with carboxy-PTIO followed by compound addition and further incubated for 72 hrs by Western blot analysis; assay type: cell-based
Target sequence in this assay (Q05397 2-1052 limits assumed): as the sequence (Q05397 2-1052 limits assumed) above

MDA-MB-231 [31] = experiment: Induction of apoptosis in human MDA-MB-231 cells assessed as live cells at 4 uM incubated for 72 hrs by Annexin V-FITC/PI staining based flow cytometry analysis (reference value: 97.51%); assay type: functional
Focal adhesion kinase 1 [32] = target: T1, Focal adhesion kinase 1; experiment: Inhibition of FAK-mediated signaling pathway in human MDA-MB-231 cells assessed as reduction in MMP-9 protein level incubated for 72 hrs by Western blot analysis; assay type: cell-based; details: dose 1-4 µM
Target sequence in this assay (Q05397 2-1052 limits assumed): as above

Focal adhesion kinase 1 [33] = target: T1, Focal adhesion kinase 1; experiment: Inhibition of FAK-mediated signaling pathway in human MDA-MB-231 cells assessed as reduction in MMP-2 protein level at 4 uM pretreated with carboxy-PTIO followed by compound addition and further incubated for 72 hrs by Western blot analysis; assay type: cell-based
Target sequence in this assay (Q05397 2-1052 limits assumed): as above

MDA-MB-231 [34] = experiment: Effect on FAK protein expression in human MDA-MB-231 cells at 1 to 4 uM incubated for 72 hrs by Western blot analysis; assay type: functional, cell-based; details: dose 1-4 µM
MDA-MB-231 [35] = experiment: Inhibition of stress fibers formation in human MDA-MB-231 cells assessed as reduction in number of stress fibers at 4 uM incubated for 72 hrs by quantitative analysis; assay type: functional, cell-based
Focal adhesion kinase 1 [36] = target: T1, Focal adhesion kinase 1; experiment: Inhibition of FAK autophosphorylation at Y397 residue in human MDA-MB-231 cells at 4 uM pretreated with carboxy-PTIO followed by compound addition and further incubated for 72 hrs by Western blot analysis; assay type: cell-based
MDA-MB-231 [37] = experiment: Induction of apoptosis in human MDA-MB-231 cells assessed as early apoptotic cells at 2 uM incubated for 72 hrs by Annexin V-FITC/PI staining based flow cytometry analysis (reference value: 2.16%); assay type: functional
Focal adhesion kinase 1 [38] = target: T1, Focal adhesion kinase 1; experiment: Inhibition of FAK-mediated signaling pathway in human MDA-MB-231 cells assessed as reduction in MMP-9 protein level at 4 uM pretreated with carboxy-PTIO followed by compound addition and further incubated for 72 hrs by Western blot analysis; assay type: cell-based
[39] = Toxicity in BALB/c nude mouse xenografted with human MDA-MB-231 cells assessed as animal death at 50 to 30 mg/kg, po administered once daily for 30 days; assay type: organism-based; details: in vivo, 720 h, dose 50-30 mg/kg, time 30 day
MDA-MB-231 [40] = experiment: Antimigratory activity in human MDA-MB-231 cells incubated for 48 hrs by scratch wound healing assay; assay type: functional, cell-based; details: dose 1-4 µM
MDA-MB-231 [41] = experiment: Induction of apoptosis in human MDA-MB-231 cells assessed as early apoptotic cells at 4 uM incubated for 72 hrs by Annexin V-FITC/PI staining based flow cytometry analysis (reference value: 2.16%); assay type: functional
MDA-MB-231 [42] = experiment: Induction of apoptosis in human MDA-MB-231 cells assessed as late apoptotic cells at 2 uM incubated for 72 hrs by Annexin V-FITC/PI staining based flow cytometry analysis (reference value: 0.11%); assay type: functional
MDA-MB-231 [43] = experiment: Antiproliferative activity against human MDA-MB-231 cells assessed as inhibition of cell proliferation at 1 uM incubated for 72 hrs by MTT assay; assay type: functional, cell-based
MDA-MB-231 [44] = experiment: Antiproliferative activity against human MDA-MB-231 cells assessed as inhibition of cell proliferation incubated for 72 hrs in presence of 4-((8-hydroxyoctyl)oxy)-3-(phenylsulfonyl)-1,2,5-oxadiazole 2-oxide by MTT assay; assay type: functional, cell-based; details: MDA-MB-231, 72 h

CNC(=O)c1ccccc1Nc1nc(Nc2ccc(CC(=O)OCCCCCCCCOc3no[n+]([O-])c3S(=O)(=O)c3ccccc3)cc2)ncc1Cl
inhibition (MDA-MB-231 [1]): Dose-Dependent Effect
Activity (MDA-MB-231 [2]): 74.91%
Activity (MDA-MB-231 [3]): 3.94%
inhibition (Focal adhesion kinase 1 [4]): Dose-Dependent Effect
Activity (MDA-MB-231 [5]): 12.6%
inhibition (MDA-MB-231 [6]): inactive
IC50 (MDA-MB-453): 159 nM
IC50 (MDA-MB-157): 167 nM
inhibition at 5 µM (MDA-MB-231 [7]): > 92%
Activity (MDA-MB-231 [8]): 3.34%
IC50 at 72 h [9]: 2400 nM
inhibition (MDA-MB-231 [10]): Active
selectivity ratio [11]: 19.1
inhibition (MDA-MB-231 [12]): Active
inhibition (MDA-MB-231 [13]): Active
inhibition (Focal adhesion kinase 1 [14]): Dose-Dependent Effect
IC50 (MDA-MB-231 [15]): 126 nM
inhibition (MDA-MB-231 [16]): Active
Activity (MDA-MB-231 [17]): Dose-Dependent Effect
Activity (MDA-MB-231 [18]): 77.01%
Ratio IC50 (MDA-MB-231 [19]): ~10
Activity [20]: Non-Toxic
inhibition (Focal adhesion kinase 1 [21]): Dose-Dependent Effect
Activity (MDA-MB-231 [22]): inactive
inhibition (MDA-MB-231 [23]): inactive
Activity (MDA-MB-231 [24]): 1.38%
Activity (MDA-MB-231 [25]): 13.94%
IC50 (Focal adhesion kinase 1 [26]): 27.4 nM
Activity (MDA-MB-231 [27]): Dose-Dependent Effect
inhibition (MDA-MB-231 [28]): Active
Activity (MDA-MB-231 [29]): 6.46%
inhibition (Focal adhesion kinase 1 [30]): inactive
Activity (MDA-MB-231 [31]): 26%
inhibition (Focal adhesion kinase 1 [32]): Dose-Dependent Effect
inhibition (Focal adhesion kinase 1 [33]): inactive
Activity (MDA-MB-231 [34]): inactive
inhibition (MDA-MB-231 [35]): Active
inhibition (Focal adhesion kinase 1 [36]): inactive
Activity (MDA-MB-231 [37]): 9.88%
inhibition (Focal adhesion kinase 1 [38]): inactive
Activity [39]: Non-Toxic
Activity (MDA-MB-231 [40]): Dose-Dependent Effect
Activity (MDA-MB-231 [41]): 56.72%
Activity (MDA-MB-231 [42]): 13.83%
Activity (MDA-MB-231 [43]): Active

CNC(=O)c1ccccc1Nc1nc(Nc2ccc(CC(=O)O)cc2)ncc1Cl
IC50 (MDA-MB-231 [44]): 1220 nM
IC50 (MDA-MB-231 [15]): 1950 nM
